Data reported in the NIST ThermoML archive (doi:10.1021/je900444h).

Experiment: mn = molality of the nth substance listed, in mol/kg
Details: 101 kPa, Liquid; for mass density: Vibrating tube method; for viscosity: Capillary tube (Ostwald / Ubbelohde) method

CNC(=O)NC [1,3-dimethylurea] + O
Details	mass density [kg/m3]	viscosity [mPa·s]
283.15 K, m1 = 0.0033	999.7	–
283.15 K, m1 = 0.0331	1000	–
283.15 K, m1 = 0.0995	1000.6	–
283.15 K, m1 = 0.1669	1001.2	–
283.15 K, m1 = 0.2354	1001.8	–
283.15 K, m1 = 0.3039	1002.4	–
283.15 K, m1 = 0.3387	1002.7	–
283.15 K, m1 = 0.4997	1004.2	–
283.15 K, m1 = 0.7491	1006.5	–
283.15 K, m1 = 1.001	1008.7	–
283.15 K, m1 = 1.08	1009.4	–
283.15 K, m1 = 1.5	1013.2	–
283.15 K, m1 = 1.923	1016.8	–
283.15 K, m1 = 2.885	1024.6	–
283.15 K, m1 = 4.005	1032.6	–
283.15 K, m1 = 5.304	1040.7	–
283.15 K, m1 = 6.862	1048.7	–
283.15 K, m1 = 8.726	1056.3	–
283.15 K, m1 = 11.02	1063.4	–
283.15 K, m1 = 15.65	1072.5	–
283.15 K, m1 = 23.15	1079.6	–
288.15 K, m1 = 0.0033	999.1	1.173
288.15 K, m1 = 0.0331	999.4	1.187
288.15 K, m1 = 0.0995	1000	1.212
288.15 K, m1 = 0.1669	1000.5	1.232
288.15 K, m1 = 0.2354	1001.1	1.243
288.15 K, m1 = 0.3039	1001.7	1.255
288.15 K, m1 = 0.3387	1002	1.27
288.15 K, m1 = 0.4997	1003.4	–
288.15 K, m1 = 0.7491	1005.6	1.402
288.15 K, m1 = 1.001	1007.8	–
288.15 K, m1 = 1.08	1008.5	–
288.15 K, m1 = 1.5	1012.1	–
288.15 K, m1 = 1.923	1015.5	1.831
288.15 K, m1 = 2.885	1023	2.225
288.15 K, m1 = 4.005	1030.7	2.746
288.15 K, m1 = 5.304	1038.4	3.342
288.15 K, m1 = 6.862	1046	4.179
288.15 K, m1 = 8.726	1053.3	5.242
288.15 K, m1 = 11.02	1060.1	6.533
288.15 K, m1 = 15.65	1068.9	9.3
288.15 K, m1 = 23.15	1075.7	14.49
293.15 K, m1 = 0.0033	998.2	1.035
293.15 K, m1 = 0.0331	998.5	1.045
293.15 K, m1 = 0.0995	999	1.066
293.15 K, m1 = 0.1669	999.6	1.081
293.15 K, m1 = 0.2354	1000.2	1.094
293.15 K, m1 = 0.3039	1000.8	1.104
293.15 K, m1 = 0.3387	1001	1.117
293.15 K, m1 = 0.4997	1002.4	–
293.15 K, m1 = 0.7491	1004.5	1.228
293.15 K, m1 = 1.001	1006.6	–
293.15 K, m1 = 1.08	1007.3	–
293.15 K, m1 = 1.5	1010.7	–
293.15 K, m1 = 1.923	1014	1.581
293.15 K, m1 = 2.885	1021.2	1.902
293.15 K, m1 = 4.005	1028.5	2.325
293.15 K, m1 = 5.304	1035.9	2.805
293.15 K, m1 = 6.862	1043.3	3.464
293.15 K, m1 = 8.726	1050.2	4.27
293.15 K, m1 = 11.02	1056.8	5.262
293.15 K, m1 = 15.65	1065.3	7.377
293.15 K, m1 = 23.15	1071.9	11.22
298.15 K, m1 = 0.0033	997.1	0.9187
298.15 K, m1 = 0.0331	997.3	0.929
298.15 K, m1 = 0.0995	997.9	0.9456
298.15 K, m1 = 0.1669	998.4	0.9603
298.15 K, m1 = 0.2354	999	0.9716
298.15 K, m1 = 0.3039	999.5	0.9789
298.15 K, m1 = 0.3387	999.8	0.9944
298.15 K, m1 = 0.4997	1001.1	–
298.15 K, m1 = 0.7491	1003.2	1.084
298.15 K, m1 = 1.001	1005.2	–
298.15 K, m1 = 1.08	1005.8	–
298.15 K, m1 = 1.5	1009.2	–
298.15 K, m1 = 1.923	1012.3	1.379
298.15 K, m1 = 2.885	1019.2	1.649
298.15 K, m1 = 4.005	1026.3	1.998
298.15 K, m1 = 5.304	1033.3	2.382
298.15 K, m1 = 6.862	1040.4	2.921
298.15 K, m1 = 8.726	1047	3.535
298.15 K, m1 = 11.02	1053.4	4.342
298.15 K, m1 = 15.65	1061.6	5.955
298.15 K, m1 = 23.15	1068	8.8
303.15 K, m1 = 0.0033	995.7	0.8242
303.15 K, m1 = 0.0331	995.9	0.8316
303.15 K, m1 = 0.0995	996.4	0.8464
303.15 K, m1 = 0.1669	997	0.8592
303.15 K, m1 = 0.2354	997.5	0.8702
303.15 K, m1 = 0.3039	998.1	0.8753
303.15 K, m1 = 0.3387	998.3	0.887
303.15 K, m1 = 0.4997	999.6	–
303.15 K, m1 = 0.7491	1001.6	0.9652
303.15 K, m1 = 1.001	1003.6	–
303.15 K, m1 = 1.08	1004.2	–
303.15 K, m1 = 1.5	1007.4	–
303.15 K, m1 = 1.923	1010.5	1.216
303.15 K, m1 = 2.885	1017.1	1.44
303.15 K, m1 = 4.005	1023.8	1.729
303.15 K, m1 = 5.304	1030.6	2.055
303.15 K, m1 = 6.862	1037.4	2.49
303.15 K, m1 = 8.726	1043.8	3.002
303.15 K, m1 = 11.02	1049.8	3.603
303.15 K, m1 = 15.65	1057.8	4.927
303.15 K, m1 = 23.15	1064	7.122
308.15 K, m1 = 0.4997	997.9	–
308.15 K, m1 = 0.7491	999.8	0.8666
308.15 K, m1 = 1.001	1001.7	–
308.15 K, m1 = 1.08	1002.3	–
308.15 K, m1 = 1.5	1005.4	–
308.15 K, m1 = 1.923	1008.4	1.079
308.15 K, m1 = 2.885	1014.8	1.271
308.15 K, m1 = 4.005	1021.3	1.511
308.15 K, m1 = 5.304	1027.8	1.778
308.15 K, m1 = 6.862	1034.3	2.135
308.15 K, m1 = 8.726	1040.5	2.545
308.15 K, m1 = 11.02	1046.3	3.056
308.15 K, m1 = 15.65	1054	4.116
308.15 K, m1 = 23.15	1060.1	5.865
313.15 K, m1 = 0.4997	996	–
313.15 K, m1 = 0.7491	997.9	0.7797
313.15 K, m1 = 1.001	999.7	–
313.15 K, m1 = 1.08	1000.3	–
313.15 K, m1 = 1.5	1003.3	–
313.15 K, m1 = 1.923	1006.1	0.9649
313.15 K, m1 = 2.885	1012.3	1.127
313.15 K, m1 = 4.005	1018.6	1.336
313.15 K, m1 = 5.304	1024.9	1.56
313.15 K, m1 = 6.862	1031.1	1.859
313.15 K, m1 = 8.726	1037.1	2.195
313.15 K, m1 = 11.02	1042.8	2.626
313.15 K, m1 = 15.65	1050.2	3.513
313.15 K, m1 = 23.15	1056.1	4.918
318.15 K, m1 = 5.304	1021.8	1.38
318.15 K, m1 = 6.862	1027.8	1.632
318.15 K, m1 = 8.726	1033.6	1.906
318.15 K, m1 = 11.02	1039.1	2.268
318.15 K, m1 = 15.65	1046.3	3.024
318.15 K, m1 = 23.15	1052.1	4.196
323.15 K, m1 = 5.304	1018.6	1.222
323.15 K, m1 = 6.862	1024.5	1.44
323.15 K, m1 = 8.726	1030.1	1.681
323.15 K, m1 = 11.02	1035.4	1.983
323.15 K, m1 = 15.65	1042.4	2.646
323.15 K, m1 = 23.15	1048	3.658
328.15 K, m1 = 5.304	1015.9	1.095
328.15 K, m1 = 6.862	1021	1.293
328.15 K, m1 = 8.726	1026.5	1.492
328.15 K, m1 = 11.02	1031.6	1.76
328.15 K, m1 = 15.65	1038.4	2.333
328.15 K, m1 = 23.15	1043.9	3.212
333.15 K, m1 = 5.304	1012.3	1.024
333.15 K, m1 = 6.862	1017.5	1.164
333.15 K, m1 = 8.726	1022.7	1.343
333.15 K, m1 = 11.02	1027.8	1.564
333.15 K, m1 = 15.65	1034.4	2.061
333.15 K, m1 = 23.15	1039.8	2.818
